# Data taken from patent publication US20230132133A1, “METHODS AND COMPOSITIONS FOR THE TREATMENT OF C. DIFFICILE” (priority 2018, published 2023).
# “And” between values parts separate entries of the source, which are not always exact repeats. Equal values may be shown once.
# Legend:
# [1] = system: B. amyloliquefaciens ART24; assay: Antibiotic MIC following EFSA testing recommendations on lyophilized ART24 lots and cell banks; format: cell-based, Bacillus amyloliquefaciens
# Text: The minimum inhibitory concentration (MIC) of the listed antimicrobials is expressed as µg/mL.
# C. difficile ATCC 43255 = assay: C. difficile mouse model, in vivo efficacy; set-up: species or system Mice (C57BL/6J female); conditions: to study day 10 post-C. difficile infection
# Protocol: C. difficile mouse model. The mouse model of C. difficile infection was prepared as described elsewhere (Chen, X, et al., Gastroenterology 135:1984-1992 (2008)).
# Mice (C57BL/6J female) were divided prospectively into 4 treatment groups of 15 animals (Table 7) and housed 5 animals per cage.
# Mice received an antibiotic cocktail for eight consecutive days in their drinking water starting 13 days prior to C. difficile infection (study day 0). The antibiotic cocktail was changed every third day with freshly prepared antibiotics provided. The antibiotic cocktail consisted of 1% glucose, kanamycin (0.5 mg/mL), gentamicin (0.044 mg/mL), colistin (1062.5 U/mL), metronidazole (0.269 mg/mL), ciprofloxacin (0.156 mg/mL), ampicillin (0.1 mg/mL) and vancomycin (0.056 mg/mL). Five days prior to C. difficile infection, the antibiotic water was removed. Animals were placed in clean cages and sterile drinking water provided to the mice. Three days prior to infection mice were administered Clindamycin at 10 mg/kg via oral gavage in a volume of 10 mL/kg.
# The strain was applied to TSA agar plates from frozen stocks (3 days prior to dosing) and cultured overnight at 37° C. […]
# Mice were observed daily through the course of the study. […] Clinical observations were also performed with adverse observations recorded when appropriate. […]
# [2] = system: B. amyloliquefaciens ART4; assay: Antibiotic MIC, VetMIC Lact-1 & Lact-2 panels; format: cell-based, Bacillus amyloliquefaciens; conditions: Bacillus amyloliquefaciens, ART4; 24 hr at 37° C.
# Protocol: (§1) The wells of the prefabricated 96-well plates were filled with 100 μL of the final suspension. The plates were sealed with an […], Sigma Aldrich) sealing film (to facilitate growth of the aerobic Bacillus strains. The plates were then incubated for 24 hr at 37° C. The results are recorded after 24 hours as the lowest concentration of the antibiotic to inhibit visible growth. The prefabricated panels […], Uppsala, Sweden) comprising the antibiotics ampicillin, vancomycin, gentamicin, kanamycin, streptomycin, erythromycin, clindamycin, tetracycline, chloramphenicol, neomycin, penicillin, quinupristin-dalfopristin, linezolid, trimethoprim, ciprofloxacin and rifampicin were used.
# [3] = system: B. amyloliquefaciens ART24; assay: Antibiotic MIC, VetMIC Lact-1 & Lact-2 panels; format: cell-based, Bacillus amyloliquefaciens; conditions: Bacillus amyloliquefaciens, ART24; 24 hr at 37° C.
# Protocol: as §1
# [4] = system: B. amyloliquefaciens ART12; assay: Antibiotic MIC, VetMIC Lact-1 & Lact-2 panels; format: cell-based, Bacillus amyloliquefaciens; conditions: Bacillus amyloliquefaciens, ART12; 24 hr at 37° C.
# Protocol: as §1
smiles,measurement,setting,value
CN[C@H](CC(C)C)C(=O)N[C@H]1C(=O)N[C@@H](CC(N)=O)C(=O)N[C@H]2C(=O)N[C@H]3C(=O)N[C@H](C(=O)N[C@H](C(=O)O)c4cc(O)cc(O)c4-c4cc3ccc4O)[C@H](O)c3ccc(c(Cl)c3)Oc3cc2cc(c3O[C@@H]2O[C@H](CO)[C@@H](O)[C@H](O)[C@H]2O[C@H]2C[C@](C)(N)[C@H](O)[C@H](C)O2)Oc2ccc(cc2Cl)[C@H]1O [Vancomycin],MIC interpretation for ART24,[1],0.5 (S) and ≤0.25 (S)
same,MIC,"[1]; Bacillus amyloliquefaciens, ART24, read-out: MIC for ART24",0.5 µg/mL
same,animals survived (survivors/group),C. difficile ATCC 43255,15/15
same,MIC,[2],0.5 µg/mL
same,MIC,[3],0.5 to 1 µg/mL
same,MIC,[4],0.5 µg/mL
